Measured values taken from ChEMBL document CHEMBL4507319 (2021).

Tests used:
Conditions in all cases: Compound concentration 1000.0 nM
[1] = target: T1, Aurora kinase A (Homo sapiens) (UniProt O14965)
T1 sequence (whole entry): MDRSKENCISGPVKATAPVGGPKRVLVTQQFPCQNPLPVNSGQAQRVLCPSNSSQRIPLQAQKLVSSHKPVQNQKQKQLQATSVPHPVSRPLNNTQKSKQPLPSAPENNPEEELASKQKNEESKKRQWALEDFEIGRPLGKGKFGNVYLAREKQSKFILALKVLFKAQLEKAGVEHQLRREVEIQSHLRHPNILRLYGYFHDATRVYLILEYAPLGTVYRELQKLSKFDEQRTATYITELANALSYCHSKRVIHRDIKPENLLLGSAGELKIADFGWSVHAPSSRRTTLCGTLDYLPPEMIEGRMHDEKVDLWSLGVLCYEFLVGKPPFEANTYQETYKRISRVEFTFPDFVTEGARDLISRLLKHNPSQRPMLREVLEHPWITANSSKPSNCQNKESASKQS

[2] = target: T2, Mitogen-activated protein kinase 12 (Homo sapiens) (UniProt P53778)
T2 sequence (whole entry): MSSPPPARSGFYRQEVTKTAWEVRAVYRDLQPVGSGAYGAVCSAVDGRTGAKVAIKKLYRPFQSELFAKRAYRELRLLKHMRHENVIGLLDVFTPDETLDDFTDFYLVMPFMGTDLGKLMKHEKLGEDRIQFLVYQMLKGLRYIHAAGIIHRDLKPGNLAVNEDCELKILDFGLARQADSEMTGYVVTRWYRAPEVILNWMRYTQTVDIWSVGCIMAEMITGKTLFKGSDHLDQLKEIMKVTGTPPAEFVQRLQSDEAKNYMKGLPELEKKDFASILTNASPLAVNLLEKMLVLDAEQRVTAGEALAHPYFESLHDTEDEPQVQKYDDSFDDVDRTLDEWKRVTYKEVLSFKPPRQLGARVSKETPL

[3] = target: T3, Interleukin-1 receptor-associated kinase 4 (Homo sapiens) (UniProt Q9NWZ3)
T3 sequence (whole entry): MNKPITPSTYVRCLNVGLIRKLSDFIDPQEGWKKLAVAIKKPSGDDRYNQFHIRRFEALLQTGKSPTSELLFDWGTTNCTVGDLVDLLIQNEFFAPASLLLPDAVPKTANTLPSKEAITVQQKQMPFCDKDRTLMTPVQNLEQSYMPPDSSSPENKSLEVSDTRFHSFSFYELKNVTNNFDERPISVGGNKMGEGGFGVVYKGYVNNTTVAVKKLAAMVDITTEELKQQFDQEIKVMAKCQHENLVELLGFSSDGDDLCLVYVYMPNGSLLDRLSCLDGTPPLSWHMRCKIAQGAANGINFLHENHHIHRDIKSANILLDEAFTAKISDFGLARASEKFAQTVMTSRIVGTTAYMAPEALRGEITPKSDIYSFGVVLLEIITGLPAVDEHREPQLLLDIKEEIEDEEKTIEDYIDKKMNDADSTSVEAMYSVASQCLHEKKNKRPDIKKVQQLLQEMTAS

[4] = target: T4, Mitogen-activated protein kinase kinase kinase 2 (Homo sapiens) (UniProt Q9Y2U5)
T4 sequence (whole entry): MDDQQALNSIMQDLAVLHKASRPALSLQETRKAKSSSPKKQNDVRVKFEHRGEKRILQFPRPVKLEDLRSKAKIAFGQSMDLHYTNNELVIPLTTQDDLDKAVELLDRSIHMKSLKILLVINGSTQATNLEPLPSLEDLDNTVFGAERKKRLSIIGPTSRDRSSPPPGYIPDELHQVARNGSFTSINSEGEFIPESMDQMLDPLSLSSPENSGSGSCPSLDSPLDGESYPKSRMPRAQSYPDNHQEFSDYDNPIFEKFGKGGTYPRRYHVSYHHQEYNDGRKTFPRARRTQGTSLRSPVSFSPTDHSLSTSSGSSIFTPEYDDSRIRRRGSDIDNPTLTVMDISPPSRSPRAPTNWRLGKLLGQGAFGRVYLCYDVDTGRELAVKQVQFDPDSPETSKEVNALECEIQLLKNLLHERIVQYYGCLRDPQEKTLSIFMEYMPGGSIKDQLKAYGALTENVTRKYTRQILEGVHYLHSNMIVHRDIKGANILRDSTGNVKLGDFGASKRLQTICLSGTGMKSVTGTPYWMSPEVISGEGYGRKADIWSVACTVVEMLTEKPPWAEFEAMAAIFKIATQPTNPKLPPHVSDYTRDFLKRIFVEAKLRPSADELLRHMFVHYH

[5] = target: Receptor-interacting serine/threonine-protein kinase 4 (Homo sapiens) (UniProt P57078)
[6] = target: Tyrosine-protein kinase ABL1 (Homo sapiens) (UniProt P00519)
[7] = target: T5, Ephrin type-B receptor 4 (Homo sapiens) (UniProt P54760)
T5 sequence (whole entry): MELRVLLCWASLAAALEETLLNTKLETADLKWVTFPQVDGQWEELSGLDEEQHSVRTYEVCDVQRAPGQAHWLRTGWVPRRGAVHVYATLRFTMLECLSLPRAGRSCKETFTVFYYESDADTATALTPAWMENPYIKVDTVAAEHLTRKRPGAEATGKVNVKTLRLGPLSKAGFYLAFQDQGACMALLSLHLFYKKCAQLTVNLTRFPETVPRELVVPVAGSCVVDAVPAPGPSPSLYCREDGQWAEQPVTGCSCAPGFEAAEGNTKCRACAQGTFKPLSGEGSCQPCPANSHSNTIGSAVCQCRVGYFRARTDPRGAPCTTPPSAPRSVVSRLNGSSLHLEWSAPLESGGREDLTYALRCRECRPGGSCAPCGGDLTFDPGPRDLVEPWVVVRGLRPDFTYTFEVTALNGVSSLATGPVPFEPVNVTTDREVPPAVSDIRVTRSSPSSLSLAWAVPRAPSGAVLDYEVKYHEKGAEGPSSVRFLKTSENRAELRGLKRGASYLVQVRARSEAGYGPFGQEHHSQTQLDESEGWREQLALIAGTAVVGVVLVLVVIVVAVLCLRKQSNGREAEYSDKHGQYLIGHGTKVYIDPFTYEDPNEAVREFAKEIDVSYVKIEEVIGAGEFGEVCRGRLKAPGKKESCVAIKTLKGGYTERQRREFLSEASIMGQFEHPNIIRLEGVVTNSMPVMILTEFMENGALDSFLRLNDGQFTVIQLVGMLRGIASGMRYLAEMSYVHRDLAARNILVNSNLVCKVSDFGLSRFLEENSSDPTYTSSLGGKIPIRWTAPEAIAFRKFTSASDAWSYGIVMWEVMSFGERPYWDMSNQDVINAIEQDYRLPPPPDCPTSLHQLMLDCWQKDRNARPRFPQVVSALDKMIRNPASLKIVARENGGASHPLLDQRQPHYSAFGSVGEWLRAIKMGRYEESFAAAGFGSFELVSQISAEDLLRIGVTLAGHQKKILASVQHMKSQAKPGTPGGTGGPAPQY

Receptor-interacting serine/threonine-protein kinase 4 (Homo sapiens), sequence (P57078 whole entry): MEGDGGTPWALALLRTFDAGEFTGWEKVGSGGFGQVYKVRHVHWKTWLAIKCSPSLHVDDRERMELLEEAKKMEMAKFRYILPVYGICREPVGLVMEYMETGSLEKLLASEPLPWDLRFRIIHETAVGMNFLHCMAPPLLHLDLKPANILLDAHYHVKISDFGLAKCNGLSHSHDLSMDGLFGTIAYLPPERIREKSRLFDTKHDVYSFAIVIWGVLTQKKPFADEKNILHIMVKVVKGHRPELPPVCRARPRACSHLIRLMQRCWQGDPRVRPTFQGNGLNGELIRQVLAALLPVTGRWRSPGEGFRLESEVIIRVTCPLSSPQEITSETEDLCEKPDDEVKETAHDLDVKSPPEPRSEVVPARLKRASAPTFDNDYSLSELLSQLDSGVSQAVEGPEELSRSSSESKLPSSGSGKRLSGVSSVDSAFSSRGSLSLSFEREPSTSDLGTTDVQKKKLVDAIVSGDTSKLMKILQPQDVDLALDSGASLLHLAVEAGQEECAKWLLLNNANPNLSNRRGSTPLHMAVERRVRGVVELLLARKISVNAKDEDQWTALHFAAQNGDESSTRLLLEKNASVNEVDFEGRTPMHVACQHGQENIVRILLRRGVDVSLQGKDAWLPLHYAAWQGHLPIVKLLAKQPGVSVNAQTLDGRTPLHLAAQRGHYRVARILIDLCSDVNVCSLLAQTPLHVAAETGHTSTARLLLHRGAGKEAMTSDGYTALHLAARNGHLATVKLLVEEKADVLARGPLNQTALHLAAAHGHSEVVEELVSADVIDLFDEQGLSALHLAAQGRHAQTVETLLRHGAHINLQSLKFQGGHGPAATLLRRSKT
Tyrosine-protein kinase ABL1 (Homo sapiens), sequence (P00519 whole entry): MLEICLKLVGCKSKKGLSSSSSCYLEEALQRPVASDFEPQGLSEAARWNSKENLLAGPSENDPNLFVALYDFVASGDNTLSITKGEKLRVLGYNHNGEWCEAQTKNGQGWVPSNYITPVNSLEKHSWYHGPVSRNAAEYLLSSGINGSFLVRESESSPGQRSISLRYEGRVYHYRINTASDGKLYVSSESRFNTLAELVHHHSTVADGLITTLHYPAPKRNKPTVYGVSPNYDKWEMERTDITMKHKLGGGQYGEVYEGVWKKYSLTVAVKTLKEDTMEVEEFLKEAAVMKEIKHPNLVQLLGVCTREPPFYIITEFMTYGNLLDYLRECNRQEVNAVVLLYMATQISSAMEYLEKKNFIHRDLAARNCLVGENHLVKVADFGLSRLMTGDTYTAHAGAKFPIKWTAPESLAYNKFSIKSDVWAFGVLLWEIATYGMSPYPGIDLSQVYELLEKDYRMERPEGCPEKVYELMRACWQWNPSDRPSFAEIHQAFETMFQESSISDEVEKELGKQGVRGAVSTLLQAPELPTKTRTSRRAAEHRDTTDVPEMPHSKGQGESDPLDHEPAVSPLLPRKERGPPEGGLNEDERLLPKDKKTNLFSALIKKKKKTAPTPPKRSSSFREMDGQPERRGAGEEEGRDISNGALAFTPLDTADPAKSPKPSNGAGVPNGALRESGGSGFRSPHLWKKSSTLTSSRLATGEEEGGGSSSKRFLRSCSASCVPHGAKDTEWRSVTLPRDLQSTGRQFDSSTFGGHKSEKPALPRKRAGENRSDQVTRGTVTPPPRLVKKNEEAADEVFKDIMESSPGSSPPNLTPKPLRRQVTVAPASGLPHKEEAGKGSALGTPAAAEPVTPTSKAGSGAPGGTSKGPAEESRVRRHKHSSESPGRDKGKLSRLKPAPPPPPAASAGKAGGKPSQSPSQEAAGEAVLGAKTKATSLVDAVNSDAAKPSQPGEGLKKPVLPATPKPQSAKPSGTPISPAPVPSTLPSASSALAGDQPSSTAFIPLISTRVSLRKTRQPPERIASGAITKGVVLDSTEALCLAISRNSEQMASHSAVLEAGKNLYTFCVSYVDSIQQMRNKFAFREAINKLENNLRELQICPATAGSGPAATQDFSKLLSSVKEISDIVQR

Compound	residual activity [1] [%]	residual activity [2] [%]	residual activity [3] [%]	residual activity [4] [%]	residual activity [5] [%]	residual activity [6] [%]	residual activity [7] [%]
CC1=C(C#N)C(c2ccc3c(c2)c(NC(=O)c2ccccc2C)nn3C)C(C#N)=C(C)N1 [BAY-974]	61	68	7.5	100	78	66	97
CCc1ccccc1C(=O)Nc1n[nH]c2c(C)c(F)c(C3C(C#N)=C(C)N(C)C(C)=C3C#N)cc12 [BAY-3827]	51	76	100	100	92	88	51
